Ki data for 24 molecules are collected here from BindingDB's records for doi:10.1021/jm00029a008 (Dupont Pharmaceuticals, 1994).

For orientation: Ki means a dissociation constant, usually derived from enzyme kinetics or from competition with a known ligand. A lower Ki goes with higher affinity.

Structures are written as SMILES. Where a name gives a salt, the structure may show the parent alone.

Assay [1] is described as follows: Binding affinity for sigma receptor of guinea pig whole brain using [3H]-[…] radioligand.
In assay [2] the target is D(2) dopamine receptor (guinea pig). Put plainly: Binding affinity for dopamine D2 receptor using [3H]spiperone in guinea pig striatum.

For the molecule `O=C1c2ccccc2CCC12CCN(Cc1ccccc1)CC2`, in assay [1], the Ki worked out at 0.001 µM. With `O=C1c2ccccc2CCC12CCN(Cc1ccc3ccccc3c1)CC2` [1'-(2-naphthylmethyl)spiro[1,2,3,4-tetrahydronaphthalene-2,4'-(hexahydropyridine)]-1-one ;malate], the Ki in assay [1] is 0.011 µM; in assay [2] it was > 10 µM. Regarding `O=C1c2ccccc2CCC12CCN(Cc1ccc(F)cc1)CC2` [1'-(4-fluorobenzyl)spiro[1,2,3,4-tetrahydronaphthalene-2,4'-(hexahydropyridine)]-1-one; hydrochloride], the affinity in assay [1], expressed as Ki, was 0.004 µM.

With `COc1ccc(CN2CCC3(CCc4ccccc4C3=O)CC2)cc1` [1'-(4-methoxybenzyl)spiro[1,2,3,4-tetrahydronaphthalene-2,4'-(hexahydropyridine)]-1-one; hydrochloride], in assay [1], affinity was put at a Ki of 0.003 µM. For the molecule `O=C1c2ccccc2CCC12CCN(Cc1ccc([N+](=O)[O-])cc1)CC2` [1'-(4-nitrobenzyl)spiro[1,2,3,4-tetrahydronaphthalene-2,4'-(hexahydropyridine)]-1-one; hydrochloride], the Ki was 0.0019 µM in assay [1] and 1.97 µM in assay [2]. As to `O=C1c2ccccc2CCC12CCN(Cc1ccc(C(F)(F)F)cc1)CC2` [1'-(4-trifluoromethylbenzyl)spiro[1,2,3,4-tetrahydronaphthalene-2,4'-(hexahydropyridine)]-1-one; malate], the Ki in assay [1] stood at 0.024 µM.

Molecule `CC(C)(C)c1ccc(CN2CCC3(CCc4ccccc4C3=O)CC2)cc1` [1'-[4-(tert-butyl)benzyl]spiro[1,2,3,4-tetrahydronaphthalene-2,4'-(hexahydropyridine)]-1-one; hydrochloride] had a Ki in assay [1] of 0.015 µM. Against the preceding molecule, the Ki is about 1.6-fold lower. Regarding `O=C1c2ccccc2CCC12CCN(CC1CCCCC1)CC2` [1'-cyclohexylmethylspiro[1,2,3,4-tetrahydronaphthalene-2,4'-(hexahydropyridine)]-1-one; hydrochloride], the Ki in assay [1] was determined as 0.002 µM; in assay [2], 1.17 µM. In the case of `OC1CCc2ccccc2C12CCN(CCc1ccccc1)CC2` (centres undefined) [1'-phenethylspiro[1,2,3,4-tetrahydronaphthalene-1,4'-(hexahydropyridine)]-2-ol], in assay [2], the Ki is > 10 µM.

As for `O=C1CCc2ccccc2C12CCN(CCc1ccccc1)CC2` [1'-phenethylspiro[1,2,3,4-tetrahydronaphthalene-1,4'-(hexahydropyridine)]-2-one], the Ki in assay [1] is 0.013 µM; in assay [2] it was > 10 µM.

On to `O=C1c2ccccc2CCC1C1CCN(Cc2ccccc2)CC1` (centres undefined) [2-(1-Benzyl-piperidin-4-yl)-3,4-dihydro-2H-naphthalen-1-one; hydrochloride], for which the values for the Ki in assay [1] and in assay [2] were 0.004 µM and 1 µM, respectively.

Regarding `O=C1c2ccc(F)cc2CCC1C1CCN(Cc2ccccc2)CC1` (centres undefined) [2-(1-Benzyl-piperidin-4-yl)-6-fluoro-3,4-dihydro-2H-naphthalen-1-one], the figures for the Ki in assay [1] and in assay [2] were 0.009 µM and 0.062 µM, respectively. On to `COc1ccc2c(c1)CCC(C1CCN(Cc3ccccc3)CC1)C2=O` (centres undefined) [2-(1-Benzyl-piperidin-4-yl)-6-methoxy-3,4-dihydro-2H-naphthalen-1-one], for which, in assay [1], the Ki was 0.007 µM. Consider `O=C1c2ccccc2CCC1C1CCN(CC2CC2)CC1` (centres undefined) [2-(1-Cyclopropylmethyl-piperidin-4-yl)-3,4-dihydro-2H-naphthalen-1-one; hydrobromide], for which the Ki in assay [1] came to 0.026 µM; in assay [2], 1.08 µM. For the molecule `O=C1c2ccccc2CCC1C1CCN(CCc2ccccc2)CC1` (centres undefined) [2-(1-Phenethyl-piperidin-4-yl)-3,4-dihydro-2H-naphthalen-1-one; hydrobromide], the Ki in assay [1] worked out at 0.01 µM; in assay [2], 0.6 µM.

For `CC(C1CC1)N1CCC(C2CCc3ccccc3C2=O)CC1` (centres undefined) [2-[1-(1-Cyclopropyl-ethyl)-piperidin-4-yl]-3,4-dihydro-2H-naphthalen-1-one; hydrobromide], the affinity in assay [1] corresponds to a Ki of 0.026 µM. That is a double-digit nanomolar value. As to `O=C1c2ccccc2CCC1C1CCN(Cc2ccc(F)cc2)CC1` (centres undefined) [2-[1-(4-Fluoro-benzyl)-piperidin-4-yl]-3,4-dihydro-2H-naphthalen-1-one; hydrochloride], the Ki in assay [1] came to 0.011 µM; in assay [2] it was 0.061 µM.

With `Cc1ccc(CN2CCC(C3CCc4ccccc4C3=O)CC2)cc1` (centres undefined) [2-[1-(4-Methyl-benzyl)-piperidin-4-yl]-3,4-dihydro-2H-naphthalen-1-one; hydrate], the Ki in assay [1] is 0.008 µM. As to `O=C1c2ccccc2CCC1C1CCN(Cc2ccc(C(F)(F)F)cc2)CC1` (centres undefined) [2-[1-(4-Trifluoromethyl-benzyl)-piperidin-4-yl]-3,4-dihydro-2H-naphthalen-1-one; hydrochloride], in assay [1], affinity was put at a Ki of 0.019 µM. Turning to `CC(C)(C)c1ccc(CN2CCC(C3CCc4ccccc4C3=O)CC2)cc1` (centres undefined) [2-[1-(4-tert-Butyl-benzyl)-piperidin-4-yl]-3,4-dihydro-2H-naphthalen-1-one], the Ki in assay [1] came to 0.026 µM; in assay [2] it was 0.41 µM. For `O=C1c2cccc(F)c2CCC1C1CCN(CCc2ccccc2)CC1` (centres undefined) [5-Fluoro-2-(1-phenethyl-piperidin-4-yl)-3,4-dihydro-2H-naphthalen-1-one; hydrochloride], the Ki in assay [1] is 0.005 µM. `O=C1c2ccc(Cl)cc2CCC1C1CCN(CCc2ccccc2)CC1` (centres undefined) [6-Chloro-2-(1-phenethyl-piperidin-4-yl)-3,4-dihydro-2H-naphthalen-1-one; hydrochloride] returned an inhibition constant (Ki) in assay [1] of 0.009 µM. As to `O=C1c2ccc(F)cc2CCC1C1CCN(CCc2ccccc2)CC1` (centres undefined) [6-Fluoro-2-(1-phenethyl-piperidin-4-yl)-3,4-dihydro-2H-naphthalen-1-one], in assay [2], the affinity, expressed as Ki, was 0.344 µM. This counts as sub-micromolar. For the molecule `O=C1c2ccc(Cl)cc2CCC12CCN(CCc1ccccc1)CC2` [6-chloro-1'-phenethylspiro[1,2,3,4-tetrahydronaphthalene-2,4'-(hexahydropyridine)]-1-one], the affinity in assay [1] corresponds to a Ki of 0.035 µM.
